The values below are quoted from earlier work in patent US5529986A, “Conjugate, its preparation and use and a substrate prepared with the conjugate” (priority 1991, dated 1996).

The conditions of this data set: heparin used for standard graphs.

As for heparin, the “Known specific biological activity” value is 180 I.U./mg.
